Experimental findings from ChEMBL document CHEMBL5034031, “Discovery of Next-Generation Tropomyosin Receptor Kinase Inhibitors for Combating Multiple Resistance Associated with Protein Mutation” (J Med Chem, 2021) are described below.

A short description of data set [1]: Metabolic stability in human liver microsomes assessed as half life at 1 uM measured upto 90 mins in presence of NADPH regenerating system by LC-MS/MS analysis. The format is ADME, Microsome. (In general: Microsomes from liver hold many membrane-bound enzymes, among them those of drug oxidation.)
For data set [2], the system named is BaF3. The data set can be described thus: animal or person. The format is functional. The note with it: Mus musculus, BaF3, po; read-out: TGI.
Data set [3] relates to BaF3. In words: Antiproliferative activity against mouse BaF3 cells transfected with ETV6-wild type TRKC assessed as cell viability incubated for 72 hrs by CCK8 assay. The format is functional, cell-based. The note with it: BaF3, 72 h. Background: Tetrazolium assays rely on reduction of a dye to a coloured formazan, in cell work by metabolically active cells.
For data set [4], the system named is BaF3. The data set can be described thus: Antiproliferative activity against mouse BaF3 cells transfected with ETV6-wild type TRKA assessed as cell viability incubated for 72 hrs by CCK8 assay. The note with it: BaF3, 72 h. Format: functional, cell-based.
The test system of data set [5] is BaF3. In words: animal or person. Format: functional. The following applies: Mus musculus, BaF3, po; read-out: TGI. This is another data set of the same source.
Data set [6] has as its system BaF3. The format is functional, cell-based. The note with it: Mus musculus, BaF3, 72 h.
Data set [7] has as its system BaF3. In words: Antiproliferative activity against mouse BaF3 cells transfected with ETV6-wild type TRKB assessed as cell viability incubated for 72 hrs by CCK8 assay. Format: functional, cell-based. The note with it: BaF3, 72 h.

pIC50: −log10 of the molar value.

A word on the half-life: it is how long it takes for the measured level to halve. For the compound `O=C(Nc1cnn2ccc(N3CCC[C@@H]3c3cc(F)ccc3F)nc12)N1CC[C@H](O)C1` [LAROTRECTINIB], in data set [1], the half-life at 1 µM was determined as 365 min. In data set [2], the inhibition in vivo at 15 mg/kg was found to be 70%.

`C[C@@H](Nc1ccn2ncc(-c3cnn(C)c3)c2n1)c1cc(F)ccc1OCC(F)F`: the half-life at 1 µM in data set [1] stood at 32.4 min.

Take `Cn1cc(-c2cnn3ccc(N4CCC[C@@H]4c4cc(F)ccc4F)nc23)cn1`: the half-life at 1 µM in data set [1] was 3 min.

On to `Cn1cc(-c2cnn3ccc(N4CCC[C@@H]4c4cc(F)ccc4OCC(F)F)nc23)cn1`, for which, in data set [1], the half-life at 1 µM came to 8.3 min.

One may read the pIC50 as the IC50 on a negative log10 scale, so that one unit is a factor of ten. `C[C@@H]1CCc2ncc(F)cc2[C@H]2CCCN2c2ccn3ncc(c3n2)C(=O)N1` [SELITRECTINIB]: the pIC50 is 8.80 in data set [3], 8.96 in data set [4], 7.14 in data set [6] and 8.85 in data set [7]. Besides, the inhibition in vivo at 100 mg/kg in data set [5] is 64%.
